Measurements as given in PubChem BioAssay (NCI).
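48-hour exposure; five concentrations; linearly interpolated endpoints. GI50 is the concentration that inhibits growth by half. The concentration for full growth arrest is given as TGI.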 Where a SMILES comes first, the peptide text is derived from it. The star is where a group is joined. Palmitoyl = CCCCCCCCCCCCCCCC(=O)*

Key:
Assay in all cases: inhibition of tumour cell growth, NCI panel, 48 h
[1] = test system: CCRF-CEM leukemia
[2] = test system: SNB-78 CNS
[3] = test system: NCI-H522 lung
[4] = test system: KM20L2 colon
[5] = test system: HOP-18 NSCLC
[6] = test system: M19-MEL melanoma
[7] = test system: HCT-15 colon
[8] = test system: DLD-1 colon
[9] = test system: XF 498 CNS
[10] = test system: T-47D breast
[11] = test system: LXFL 529 NSCLC
[12] = test system: 786-0 renal
[13] = test system: ACHN renal
[14] = test system: MDA-N

Row | Compound | TGI [1] [µM] | TGI [2] [µM] | TGI [3] [µM] | TGI [4] [µM] | TGI [5] [µM] | TGI [6] [µM] | TGI [7] [µM] | TGI [8] [µM] | TGI [9] [µM] | GI50 [1] [µM] | GI50 [10] [µM] | TGI [10] [µM] | GI50 [7] [µM] | TGI [11] [µM] | TGI [12] [µM] | TGI [13] [µM] | TGI [14] [µM] | GI50 [3] [µM] | GI50 [13] [µM]
1 | Cn1c(-c2ccccc2)cc(-c2cccs2)c1-c1cccs1 | > 100 | > 100 | > 100 | > 100 | > 100 | > 100 | > 100 | > 100 | > 100 |  |  |  |  |  |  |  |  |  | 
2 | C/C(=N/N=C(\[O-])c1ccncc1)C(F)(F)F.C/C(=N\N=C(/[O-])c1ccncc1)C(F)(F)F.[Ni+2] | > 1 |  |  |  |  |  | > 1 |  |  | > 1 | > 1 | > 1 | > 1 |  |  |  |  |  | 
3 | CC(N)Cc1ccc(Cl)c(Cl)c1 (centres undefined) | > 78.1 | > 100 | > 66.9 | 53.7 | > 77.1 | 47 | 84.9 | > 100 | 23.7 |  |  |  |  | 34.9 | > 100 | > 84.6 |  |  | 
4 | Nc1[nH]c(=O)nc2c1cnn2C1CCCCO1 (centres undefined) | > 100 | > 100 |  | > 100 | > 100 |  | > 100 | > 100 | > 100 |  |  |  |  | > 100 |  | > 100 |  |  | 
5 | CON(C)c1nc(N(C)OC)nc(N(C)OC)n1 | > 10 |  | > 10 |  |  |  | > 10 |  |  |  |  | > 10 |  |  |  | > 10 | > 10 |  | 
6 | Cc1cc(C)nc(NS(=O)(=O)c2ccc(NC(=O)c3cccc4c(Nc5ccc(S(=O)(=O)Nc6cc(C)on6)cc5)c5ccccc5nc34)cc2)n1 | 75.7 | > 100 | 32.5 |  |  | 62.4 |  | > 100 | 47.6 |  |  |  |  | 35.5 |  | > 100 |  |  | 
7 | CCN1CCC(O)(/C=C/c2ccccc2C)C(C(=O)/C=C/c2ccccc2C)C1 (centres undefined) | 4.85 |  |  |  |  |  | 3.8 |  |  |  |  | 4.32 |  |  |  |  | 8.88 |  | 
8 | CCCCCCCCCCCCCCCC(=O)N1CCCC1C(=O)NCC(=O)NC(Cc1ccccc1)C(=O)NC(C)C(=O)NC(CO)C(=O)NC(Cc1ccc(O)cc1)C(=O)NC(CCCCN)C(=O)NC(CC(C)C)C(=O)NC(CCCN=C(N)N)C(=O)N1CCCC1C(=O)NCC(N)=O (centres undefined) (Palmitoyl-PGFASYKLRPG-NH2; configuration not given here) | 30.1 |  | 46.9 |  |  |  |  |  |  | 16.5 | 17.4 | 39.6 |  |  |  |  |  | 20.2 | 
9 | CC1=C(O)C2=C(C(=O)C1=O)[C@@H](C)CC[C@@H]2[C@@H](C)C/C=C/C(C)(C)O | > 100 |  | 58.8 |  |  |  | > 100 |  |  |  |  | 78.2 |  |  | > 100 | 98 | > 100 |  | 
10 | C=C(C)C1Cc2c(c3ccccc3n(C)c2=O)O1 (centres undefined) | > 100 | > 100 | > 100 | > 100 | > 100 | > 100 | > 100 | > 100 |  |  |  |  |  | > 100 |  | > 100 |  |  | 
11 | COC(=O)C1=C(OC(=O)/C(=C/c2ccc(Cl)cc2)c2ccc(Cl)cc2)C(C(=O)OC)[C@]2(O)[C@@H](C(=O)OC)[C@H]1C[C@@H](c1ccccc1)[C@@H]2C(=O)OC (some centres undefined) |  |  | > 100 |  |  |  | > 100 |  |  |  |  | > 100 |  |  |  | > 100 | > 100 |  | 
12 | c1ccc(-c2nc(N3CCNCC3)c3oc(-c4ccccc4)nc3n2)cc1 | 4.08 |  | 4.51 |  |  |  | 3.51 |  |  | 1.63 | 2.1 | 4.95 | 1.8 |  |  | 3 |  | 1.99 | 1.64
13 | Nc1nc(Nc2ccccc2)c2[nH]cnc2n1 | > 100 |  | > 100 |  |  |  | > 100 |  |  |  |  | > 100 |  |  | > 100 | > 100 | > 100 |  | 
14 | COc1cc(C(C)O)c[n+](Cc2ccccc2)c1 (centres undefined) | > 100 | > 100 | > 100 | > 100 | > 100 | > 100 | > 100 | > 100 | > 31.6 |  |  |  |  | > 100 | > 100 | > 100 |  |  | 
15 | COC(=O)c1c(C)n([O-])c2cc(Cl)c(Cl)cc2[n+]1=O | 42.3 |  | 25.4 |  |  |  | 37.9 |  |  |  |  | > 100 |  |  | > 100 | 62.8 | > 100 |  | 
16 | OCCN(CCO)c1ncnc2nc[nH]c12 | > 100 |  | > 100 |  |  |  | > 100 |  |  |  |  | > 100 |  |  | > 100 | > 100 | > 100 |  | 
17 | Cc1c(-c2ccccc2)[nH]c2cc(Cl)ccc2c1=O | > 100 |  |  |  |  |  | > 100 |  |  |  |  | > 100 |  |  |  | > 100 | > 100 |  | 
18 | CC(C)C(C(=O)O)N1C(=O)c2ccccc2C1=O (centres undefined) | > 100 |  | > 100 |  |  |  | > 100 |  |  |  |  | > 100 |  |  | > 100 | > 100 | > 100 |  | 
19 | c1cnc2c(c1)ccc1cccnc12 | 5.5 |  | > 100 |  |  |  | > 100 |  |  |  |  | > 100 |  |  | > 100 | > 100 | > 100 |  | 
20 | CCOC(=O)c1c(C)n(-c2ccc(Cl)cc2)c2c1cc(O)c1[nH]c3c(c12)CCCC3 | > 100 |  | 60.4 |  |  |  | > 100 |  |  |  |  | > 100 |  |  | > 100 | > 100 | > 100 |  | 
21 | O=C(/C=C/c1ccc(Oc2cc(C(=O)/C=C/c3ccc(O)cc3)c(O)cc2O)cc1)c1ccc(O)cc1O | 10.8 |  | 19.1 |  |  |  | 19.4 |  |  |  |  | 27.4 |  |  | 16 | 22.2 |  |  | 
22 | CN1C(c2ccccc2)CC(=O)C(N)C1c1ccccc1 (centres undefined) | 66 | 69.7 | 33.7 | > 90.6 | > 100 | 55.5 | > 63.1 | > 100 | 28.1 |  |  |  |  | 37.5 | 97.7 | > 100 |  |  | 
